Measurements published in patent US7348427B2, “Antipathogenic benzamide compounds” (Genesoft Pharmaceuticals, Inc., priority 2001, dated 2008).

What was measured:
[1] = tested on: Staphylococcus aureus (ATCC 27660, a methicillin resistant strain (MRSA)); assay: MIC, NCCLS broth microdilution assay; assay type: cell-based; settings: F = S. aureus ATCC 27660
Excerpt: (§1) In vitro biological activity data were collected for a variety of microorganisms, including Bacillus cereus (ATCC 11778), Staphylococcus aureus (ATCC 27660, a methicillin resistant strain (MRSA); ATCC 13709, a methicillin sensitive strain (MSSA)); Streptococcus pneumoniae (ATCC 51422, a penicillin resistant strain (PRSP)), Enterococcus faecium (ATCC 51559, a vancomycin resistant strain (VRE)), and Staphylococcus epidermidis (ATCC 12228). Additionally, antifungal activity data were collected for Candida albicans (ATCC 38247).
(§2) Compounds according to this invention were screened for their in vitro activities against selected species of bacteria and fungi. The minimal inhibition concentration (MIC) of these compounds was determined using the National Committee for Clinical Laboratory Standards (NCCLS) broth microdilution assay in microtiter plates, as set forth in: (1) the guidelines of the National. Committee for Clinical Laboratory Standards (NCCLS) Document M7-A4 (NCCLS, 1997); (2) the guidelines of the National Committee for Clinical Laboratory Standards (NCCLS) Document M11-A4 (NCCLS, 1997); and (3) the guidelines and reference method of the National Committee for Clinical Laboratory Standards (NCCLS) Document M27-T (NCCLS, 1995). For antifungal assays, the method recommended in Murray, P R., 1995 Manual of Clinical Microbiology (ASM Press, Washington, D.C.), was employed.

[2] = tested on: Staphylococcus aureus (ATCC 13709, a methicillin sensitive strain (MSSA)); assay: MIC, NCCLS broth microdilution assay; assay type: cell-based; settings: E = S. aureus ATCC 13709
Excerpt: as §1, §2

[3] = tested on: Bacillus cereus (ATCC 11778); assay: MIC, NCCLS broth microdilution assay; assay type: cell-based; settings: A = B. cereus ATCC 11778
Excerpt: as §1, §2

E. faecalis ATCC 29212 = assay: MIC, NCCLS broth microdilution assay; assay type: cell-based, Enterococcus faecalis; settings: C = E. faecalis ATCC 29212
Procedure: as §2

S. pneumoniae ATCC 49619 = assay: MIC, NCCLS broth microdilution assay; assay type: cell-based, Streptococcus pneumoniae; settings: H = S. pneumoniae ATCC 49619
Procedure: as §2

[4] = tested on: Candida albicans (ATCC 38247); assay: Antifungal MIC assay; assay type: cell-based; settings: B = C. albicans ATCC 38247
Excerpt: as §1, §2

| SMILES | Minimum Inhibitory Concentration (MIC) [1] | Minimum Inhibitory Concentration (MIC) [2] | Minimum Inhibitory Concentration (MIC) [3] | Minimum Inhibitory Concentration (MIC) (E. faecalis ATCC 29212) | Minimum Inhibitory Concentration (MIC) (S. pneumoniae ATCC 49619) | Minimum Inhibitory Concentration (MIC) [4] |
| --- | --- | --- | --- | --- | --- | --- |
| Cn1cc(NC(=O)c2cc(NC(=O)c3cc(NC(=O)c4ccc(F)cc4F)cn3C)cn2C)cc1C(=O)NCCN1CCC(O)CC1 [Compound B-19] | +++ (+++ = MIC ≦ 4) | +++ (+++ = MIC ≦ 4) | +++ (+++ = MIC ≦ 4) | +++ (+++ = MIC ≦ 4) | +++ (+++ = MIC ≦ 4) | >32 µg/mL |
| C[C@@H]1CCC[C@H](C)N1CCNC(=O)c1cc(NC(=O)c2cc(NC(=O)c3cc(NC(=O)c4ccc(F)cc4F)cn3C)cn2C)cn1C [Compound B-20] | ++ (++ = 4 < MIC < 12) | +++ (+++ = MIC ≦ 4) | +++ (+++ = MIC ≦ 4) | + (+ = 12 ≦ MIC ≦ 32) | +++ (+++ = MIC ≦ 4) | >32 µg/mL |
| Cn1cc(NC(=O)c2cc(NC(=O)c3cc(NC(=O)c4ccc(F)cc4F)cn3C)cn2C)cc1C(=O)NCCN [Compound B-21] | ++ (++ = 4 < MIC < 12) | + (+ = 12 ≦ MIC ≦ 32) | + (+ = 12 ≦ MIC ≦ 32) | ++ (++ = 4 < MIC < 12) | ++ (++ = 4 < MIC < 12) | + (+ = 12 ≦ MIC ≦ 32) |
| Cn1cc(NC(=O)c2cc(NC(=O)c3cc(NC(=O)c4ccc(F)cc4F)cn3C)cn2C)cc1C(=O)NCCNC(=N)N [Compound B-23] | +++ (+++ = MIC ≦ 4) | +++ (+++ = MIC ≦ 4) | +++ (+++ = MIC ≦ 4) | +++ (+++ = MIC ≦ 4) | +++ (+++ = MIC ≦ 4) | ++ (++ = 4 < MIC < 12) |
| Cn1cc(NC(=O)c2cc(NC(=O)c3cc(NC(=O)c4ccc(F)cc4F)cn3C)cn2C)cc1C(=O)NCCN(CCO)CCO [Compound B-25] | + (+ = 12 ≦ MIC ≦ 32) | + (+ = 12 ≦ MIC ≦ 32) | + (+ = 12 ≦ MIC ≦ 32) | + (+ = 12 ≦ MIC ≦ 32) | +++ (+++ = MIC ≦ 4) | >32 µg/mL |
| Cn1cc(NC(=O)c2cc(NC(=O)c3cc(NC(=O)c4ccc(F)cc4F)cn3C)cn2C)cc1C(=O)NCCN1CCNCC1 [Compound B-28] | + (+ = 12 ≦ MIC ≦ 32) | + (+ = 12 ≦ MIC ≦ 32) | + (+ = 12 ≦ MIC ≦ 32) | + (+ = 12 ≦ MIC ≦ 32) | +++ (+++ = MIC ≦ 4) | >32 µg/mL |
| Cn1cc(NC(=O)c2cc(NC(=O)c3cc(NC(=O)c4ccc(F)cc4F)cn3C)cn2C)cc1C(=O)NCCN1CCC(F)CC1 [Compound B-29] | +++ (+++ = MIC ≦ 4) | +++ (+++ = MIC ≦ 4) | +++ (+++ = MIC ≦ 4) | +++ (+++ = MIC ≦ 4) | +++ (+++ = MIC ≦ 4) | + (+ = 12 ≦ MIC ≦ 32) |
| Cn1cc(NC(=O)c2cc(NC(=O)c3cc(NC(=O)c4ccc(F)cc4F)cn3C)cn2C)cc1C(=O)NCC[N+]1(C)CCOCC1 [Compound B-30] | +++ (+++ = MIC ≦ 4) | +++ (+++ = MIC ≦ 4) | +++ (+++ = MIC ≦ 4) | >32 µg/mL | +++ (+++ = MIC ≦ 4) | + (+ = 12 ≦ MIC ≦ 32) |
| Cn1cc(NC(=O)c2cc(NC(=O)c3cc(NC(=O)c4ccc(F)cc4)cn3C)cn2C)cc1C(=O)NCCN1CCOCC1 [Compound B-32] | + (+ = 12 ≦ MIC ≦ 32) | ++ (++ = 4 < MIC < 12) | + (+ = 12 ≦ MIC ≦ 32) | ++ (++ = 4 < MIC < 12) | ++ (++ = 4 < MIC < 12) | >32 µg/mL |
| Cn1cc(NC(=O)c2cc(NC(=O)c3ccc(F)cc3)cn2C)cc1C(=O)NCCN1CCSCC1 [Compound B-33] | + (+ = 12 ≦ MIC ≦ 32) | ++ (++ = 4 < MIC < 12) | + (+ = 12 ≦ MIC ≦ 32) | ++ (++ = 4 < MIC < 12) | +++ (+++ = MIC ≦ 4) | >32 µg/mL |
| Cn1cc(NC(=O)c2cc(NC(=O)c3cc(NC(=O)c4ccc(F)cc4)cn3C)cn2C)cc1C(=O)NCCN1CCSCC1 [Compound B-34] | +++ (+++ = MIC ≦ 4) | +++ (+++ = MIC ≦ 4) | +++ (+++ = MIC ≦ 4) | +++ (+++ = MIC ≦ 4) | +++ (+++ = MIC ≦ 4) | >32 µg/mL |
| Cn1cc(NC(=O)c2cc(NC(=O)c3cc(NC(=O)c4cc(NC(=O)c5ccc(F)cc5)cn4C)cn3C)cn2C)cc1C(=O)NCCN1CCSCC1 [Compound B-35] | +++ (+++ = MIC ≦ 4) | +++ (+++ = MIC ≦ 4) | +++ (+++ = MIC ≦ 4) | +++ (+++ = MIC ≦ 4) | +++ (+++ = MIC ≦ 4) | >32 µg/mL |
| Cn1cc(NC(=O)c2cc(NC(=O)c3cc(NC(=O)c4cc(NC(=O)c5ccc(F)cc5)cn4C)cn3C)cn2C)cc1C(=O)NCCN1CCOCC1 [Compound B-37] | >32 µg/mL | +++ (+++ = MIC ≦ 4) | +++ (+++ = MIC ≦ 4) | +++ (+++ = MIC ≦ 4) | +++ (+++ = MIC ≦ 4) | >32 µg/mL |
| Cn1cc(NC(=O)c2cc(NC(=O)c3cc(NC(=O)c4ccccc4F)cn3C)cn2C)cc1C(=O)NCCN1CCOCC1 [Compound B-39] | ++ (++ = 4 < MIC < 12) | +++ (+++ = MIC ≦ 4) | +++ (+++ = MIC ≦ 4) | +++ (+++ = MIC ≦ 4) | +++ (+++ = MIC ≦ 4) | >32 µg/mL |
| Cn1cc(NC(=O)c2cc(NC(=O)c3ccccc3F)cn2C)cc1C(=O)NCCN1CCSCC1 [Compound B-40] | ++ (++ = 4 < MIC < 12) | ++ (++ = 4 < MIC < 12) | ++ (++ = 4 < MIC < 12) | +++ (+++ = MIC ≦ 4) | +++ (+++ = MIC ≦ 4) | >32 µg/mL |
| Cn1cc(NC(=O)c2cc(NC(=O)c3cc(NC(=O)c4cc(NC(=O)c5ccccc5F)cn4C)cn3C)cn2C)cc1C(=O)NCCN1CCSCC1 [Compound B-42] | +++ (+++ = MIC ≦ 4) | +++ (+++ = MIC ≦ 4) | +++ (+++ = MIC ≦ 4) | +++ (+++ = MIC ≦ 4) | +++ (+++ = MIC ≦ 4) | >32 µg/mL |
| Cn1cc(NC(=O)c2cc(NC(=O)c3ccccc3F)cn2C)cc1C(=O)NCCN1CCOCC1 [Compound B-43] | + (+ = 12 ≦ MIC ≦ 32) | + (+ = 12 ≦ MIC ≦ 32) | + (+ = 12 ≦ MIC ≦ 32) | + (+ = 12 ≦ MIC ≦ 32) | + (+ = 12 ≦ MIC ≦ 32) | >32 µg/mL |
| Cn1cc(NC(=O)c2cc(NC(=O)c3cc(NC(=O)c4cc(NC(=O)c5ccccc5F)cn4C)cn3C)cn2C)cc1C(=O)NCCN1CCOCC1 [Compound B-44] | ++ (++ = 4 < MIC < 12) | +++ (+++ = MIC ≦ 4) | +++ (+++ = MIC ≦ 4) | ++ (++ = 4 < MIC < 12) | +++ (+++ = MIC ≦ 4) | >32 µg/mL |
